# PMC5733478, “A Non-imaging High Throughput Approach to Chemical Library Screening at the Unmodified Adenosine-A3 Receptor in Living Cells” (Frontiers in Pharmacology, 2017)
# Structures can show the parent of a compound that is named as a salt.
# Target: T1, human A3AR (Homo sapiens, UniProt P0DMS8)
# T1 construct: expressed in transfected cells
# T1 sequence (P0DMS8 1-318): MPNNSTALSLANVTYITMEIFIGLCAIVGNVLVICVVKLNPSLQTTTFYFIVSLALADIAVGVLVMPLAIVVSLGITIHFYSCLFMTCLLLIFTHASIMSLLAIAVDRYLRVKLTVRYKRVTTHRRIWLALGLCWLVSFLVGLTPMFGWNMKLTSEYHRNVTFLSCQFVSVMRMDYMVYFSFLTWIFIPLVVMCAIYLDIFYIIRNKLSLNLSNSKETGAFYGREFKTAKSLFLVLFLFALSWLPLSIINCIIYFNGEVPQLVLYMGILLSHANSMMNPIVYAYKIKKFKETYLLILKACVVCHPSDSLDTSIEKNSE
# Experiment: LOPAC library primary screen: single concentration (10 μM) inhibition of 25 nM CA200645 binding, PHERAstar FS
# Conditions: not given
SMILES,% 25 nM CA200645 binding [%],% Total CA200645 binding [%]
"CCCn1c(=O)c2[nH]c(C3CCCC3)nc2n(CCCOC(=O)c2ccc(S(=O)(=O)F)cc2)c1=O [FSCPX, reference compound]",57.1 ± 9.1,
CC(=O)OCC(CCn1cnc2cnc(N)nc21)COC(C)=O [Famciclovir],104.8 ± 9.2,
NC(=O)OCC(COC(N)=O)c1ccccc1 [Felbamate],98.7 ± 4.1,
CCOC(=O)C1=C(C)NC(C)=C(C(=O)OC)C1c1cccc(Cl)c1Cl (centres unmarked) [Felodipine],79.1 ± 13.7,
CN1CC(=O)NC1=NC(=O)Nc1cccc(Cl)c1 [Fenobam],81.9 ± 15.0,
CC(C)OC(=O)C(C)(C)Oc1ccc(C(=O)c2ccc(Cl)cc2)cc1 [Fenofibrate],87.6 ± 17.1,
Oc1ccc(C2CNCCc3c2cc(O)c(O)c3Cl)cc1 (centres unmarked) [Fenoldopam bromide],90.6 ± 5.5,
O=C1NCC2(CCN(CCc3ccccc3)CC2)O1 [Fenspiride hydrochloride],81.2 ± 5.0,
CC(C)(C(=O)O)c1ccc(C(O)CCCN2CCC(C(O)(c3ccccc3)c3ccccc3)CC2)cc1 (centres unmarked) [Fexofenadine hydrochloride],93.9 ± 3.6,
Fc1ccc(C(c2ccc(F)cc2)N2CCN(C/C=C/c3ccccc3)CC2)cc1 [Flunarizine dihydrochloride],102.1 ± 8.8,
CNCCC(Oc1ccc(C(F)(F)F)cc1)c1ccccc1 (centres unmarked) [Fluoxetine hydrochloride],102.9 ± 7.1,
OCCN1CCN(CCCN2c3ccccc3Sc3ccc(C(F)(F)F)cc32)CC1 [Fluphenazine dihydrochloride],98.1 ± 12.0,
CCOC(=O)Nc1ccc(NCc2ccc(F)cc2)nc1N [Flupirtine maleate],75.3 ± 9.1,
O=C1NCN(c2ccccc2)C12CCN(CCCC(c1ccc(F)cc1)c1ccc(F)cc1)CC2 [Fluspirilene],94.5 ± 10.0,
CC(C)C(=O)Nc1ccc([N+](=O)[O-])c(C(F)(F)F)c1 [Flutamide],84.4 ± 23.0,
COCCCC/C(=N\OCCN)c1ccc(C(F)(F)F)cc1 [Fluvoxamine maleate],100.9 ± 16.7,
C=C[C@@]1(C)CC(=O)[C@]2(O)[C@@]3(C)[C@@H](O)CCC(C)(C)[C@@H]3[C@H](O)[C@H](OC(C)=O)[C@@]2(C)O1 [Forskolin],100.9 ± 7.2,
C[C@]12CC[C@@H]3c4ccc(O)cc4C[C@@H](CCCCCCCCC[S+]([O-])CCCC(F)(F)C(F)(F)F)[C@H]3[C@@H]1CC[C@@H]2O (some centres unmarked) [Fulvestrant],100.4 ± 12.1,
O=C([O-])c1cc2cc(Cc3cccnc3)ccc2o1.[Na+] [Furegrelate sodium],89.9 ± 4.6,
NS(=O)(=O)c1cc(C(=O)O)c(NCc2ccco2)cc1Cl [Furosemide],95.7 ± 5.9,
CCCCc1ccc(C(=O)O)nc1 [Fusaric acid],66.5 ± 29.0,
CC(=O)O[C@H]1C[C@@]2(C)[C@@H](C[C@@H](O)[C@H]3[C@@]4(C)CC[C@@H](O)[C@@H](C)[C@@H]4CC[C@@]32C)/C1=C(\CCC=C(C)C)C(=O)[O-].[Na+] [Fusidic acid sodium],93.0 ± 9.1,

SMILES,% 25 nM CA200645 binding [%],% Total CA200645 binding [%]
NCCCC(=O)O [GABA],95.6 ± 8.2,
Cl.Cl.Fc1ccc(C(OCCN2CCN(CCCc3ccccc3)CC2)c2ccc(F)cc2)cc1 [GBR-12909 dihydrochloride],95.7 ± 6.3,
COc1ccc(CNC(=O)/C=C/c2ccc3[nH]cc(CCN(C)C)c3c2)cc1 [GR 46611],100.9 ± 13.0,
Br.Br.CN(C)CCCc1cc(C(=O)Nc2ccc(-c3ccncc3)cc2)ccc1O [GR 55562 dihydrobromide],92.8 ± 13.3,
OC[C@H]1O[C@@H](n2cnc3c(N[C@H]4CCC[C@@H]4O)ncnc32)[C@H](O)[C@@H]1O [GR 79236X],78.0 ± 19.3,
Cn1cc(C(=O)OCC2CCN(CCNS(C)(=O)=O)CC2)c2ccccc21 [GR 113808],92.8 ± 8.0,
CN(C)c1cc2c(Nc3ccc4c(cnn4Cc4ccccc4)c3)ncnc2cn1 [GW2974],57.3 ± 11.9,
CC(C)(Sc1ccc(CCN(CCCCC2CCCCC2)C(=O)NC2CCCCC2)cc1)C(=O)O [GW7647],55.8 ± 12.2,
O=C(O)CCc1ccc(NCc2cccc(Oc3ccccc3)c2)cc1 [GW9508],94.4 ± 0.8,
O=C(Nc1ccccc1)c1cc([N+](=O)[O-])ccc1Cl [GW9662],114.5 ± 11.5,
CC1=NN=C(c2ccc(N)cc2)c2cc3c(cc2C1)OCO3.Cl [GYKI 52466 hydrochloride],78.2 ± 10.4,
Cl.NC1C=CC=C(C(=O)O)C1 (centres unmarked) [Gabaculine hydrochloride],97.5 ± 8.4,
NCC1(CC(=O)O)CCCCC1 [Gabapentin],80.7 ± 22.8,
CC[N+](CC)(CC)CCOc1cccc(OCC[N+](CC)(CC)CC)c1OCC[N+](CC)(CC)CC [Gallamine triethiodide],78.3 ± 38.7,
CC(=O)[C@H]1CC[C@H]2[C@@H]3CC[C@H]4C[C@](C)(O)CC[C@]4(C)[C@H]3CC[C@]12C [Ganaxolone],83.6 ± 13.4,
Nc1nc(O)c2ncn(COC(CO)CO)c2n1 [Ganciclovir],96.3 ± 6.5,
Nc1ccn([C@@H]2O[C@H](CO)[C@@H](O)C2(F)F)c(=O)n1 [Gemcitabine hydrochloride],106.0 ± 4.9,
COC(=O)C1=CO[C@@H](O)[C@@H]2C(CO)=CC[C@H]12 [Genipin],96.3 ± 9.0,
Cc1cnc(C(=O)NCCc2ccc(S(=O)(=O)NC(=O)NC3CCCCC3)cc2)cn1 [Glipizide],96.3 ± 1.2,
COc1ccc(Cl)cc1C(=O)NCCc1ccc(S(=O)(=O)NC(=O)NC2CCCCC2)cc1 [Glybenclamide],92.8 ± 16.7,
Cc1cc2c(C(C)C)c(O)c(O)c(C=O)c2c(O)c1-c1c(C)cc2c(C(C)C)c(O)c(O)c(C=O)c2c1O [Gossypol],54.1 ± 12.3,
CN1C2CCCC1CC(NC(=O)c1nn(C)c3ccccc13)C2 (centres unmarked) [Granisetron hydrochloride],100.4 ± 14.5,

SMILES,% 25 nM CA200645 binding [%],% Total CA200645 binding [%]
N=C(N)N/N=C/c1c(Cl)cccc1Cl [Guanabenz acetate],98.2 ± 11.7,
CNCCNS(=O)(=O)c1cccc2cnccc12.Cl.Cl [H-8 dihydrochloride],106.4 ± 6.7,
"CCCCC#Cc1nc(NC)c2ncn([C@@H]3O[C@H](CO)[C@@H](O)[C@H]3O)c2n1 [HEMADO, reference compound]",40.1 ± 10.4,
C[N+](C)(C)CCCCCC[N+](C)(C)C [Hexamethonium bromide],99.4 ± 1.1,
C[N+](C)(C)CCCCCC[N+](C)(C)C.[Cl-].[Cl-] [Hexamethonium dichloride],100.8 ± 9.2,
O=c1cc(O)cc(/C=C/c2ccc(O)c(O)c2)o1 [Hispidin],77.8 ± 19.6,
NCCc1c[nH]cn1 [Histamine dihydrochloride],102.0 ± 10.2,
NNc1nncc2ccccc12 [Hydralazine hydrochloride],100.6 ± 8.6,
NS(=O)(=O)c1cc2c(cc1Cl)NCNS2(=O)=O [Hydrochlorothiazide],95.6 ± 3.9,
C[C@]12CCC(=O)C=C1CC[C@@H]1[C@@H]2[C@@H](O)C[C@@]2(C)[C@H]1CC[C@]2(O)C(=O)CO [Hydrocortisone],84.4 ± 24.1,
Oc1ccc(O)cc1 [Hydroquinone],100.7 ± 6.6,
Cl.NO [Hydroxylamine hydrochloride],99.3 ± 3.4,
Nc1c2c(nc3ccccc13)CCCC2O.O=C(O)/C=C\C(=O)O (centres unmarked) [Hydroxytacrine maleate],108.6 ± 13.0,
NC(=O)NO [Hydroxyurea],107.6 ± 23.3,
NCCS(=O)O [Hypotaurine],94.6 ± 26.1,
COc1cc(/C=C(\C#N)C(=O)c2ccc(O)c(O)c2)cc(I)c1O [I-OMe-Tyrphostin AG 538],71.3 ± 34.4,
"CNC(=O)[C@H]1O[C@@H](n2cnc3c(NCc4cccc(I)c4)ncnc32)[C@H](O)[C@@H]1O [IB-MECA, reference compound]",36.3 ± 4.0,36.3 ± 4.0
COc1cc(OC)c(C=C2C(O)=Nc3ccccc32)c(OC)c1 [IC 261],88.8 ± 5.2,
"CCCn1c(=O)c(C)cn2nc(N)nc12 [ICI 63,137]",93.4 ± 5.4,
"CN(C(=O)Cc1ccc(Cl)c(Cl)c1)C(CN1CCCC1)c1cccc(OCC(=O)O)c1.Cl (centres unmarked) [ICI 204,448 hydrochloride]",104.6 ± 7.5,

# Same assay, conditions: % of 25 nM CA200645 binding in the presence of 10 μM compound, LOPAC full screen, A3AR CHO cells
row,SMILES,% Total CA200645 binding [%]
1,"CCCn1c(=O)c2[nH]c(C3CCCC3)nc2n(CCCOC(=O)c2ccc(S(=O)(=O)F)cc2)c1=O [FSCPX, reference compound]",57.5 ± 23.0
2,"CCCCC#Cc1nc(NC)c2ncn([C@@H]3O[C@H](CO)[C@@H](O)[C@H]3O)c2n1 [HEMADO, reference compound]",40.1 ± 10.5

# Same assay, conditions: % of control wells (1% DMSO and 25 nM CA200645); compounds at 10 µM; whole live cells expressing the A3AR; mean ± SD, three experiments in duplicate
row,SMILES,% 25 nM CA200645 binding [%]
1,Cc1nc2c([nH]1)c(=O)n(C)c(=O)n2Cc1ccco1 [Furafylline],49.5± 5.8
2,O=c1c(-c2ccc(O)cc2)coc2cc(O)cc(O)c12 [Genistein],66.1 ± 12.2
3,O=C(O)C1=CCCNC1 [Guvacine hydrochloride],99.3 ± 14.1

# Same assay, conditions: compounds tested at 10 µM; % of control wells (1% DMSO and 25 nM CA200645); whole live cells expressing the A3AR; mean ± SD, three experiments in duplicate
row,SMILES,% 25 nM CA200645 binding [%]
1,COc1cccc2c1[C@@H]1CN(CCCCn3c(=O)[nH]c4c(sc5ncc(-c6ccccc6)nc54)c3=O)C[C@@H]1CO2 [Fiduxosin hydrochloride],92.6 ± 13.4
